Measured values published in patent publication US20250194597A1, “METHOD FOR INCREASING FLAVONOID CONTENT IN PLANT THROUGH TREATMENT WITH LOW-MOLECULAR-WEIGHT SULFUR COMPOUND” (REPUBLIC OF KOREA (RURAL DEVELOPMENT ADMINISTRATION), priority 2022, published 2025).

What was measured:
Format in all cases: in vivo
[1] = tested on: Chinese cabbage cultivar 5923; test: Flavonoid content of leaves by HPLC after aglyconization, cultivar 5923; conditions: for cyanidin accumulation: 200 μM alone (no sucrose); for kaempferol content: treated alone (no sucrose), 50 and 200 μM, vs control
Method: (§1) 3-(3-Thienyl) acrylic acid (hereinafter referred to as S17) and 3-(2-Thienyl) acrylic acid (hereinafter referred to as 3-(2-S)) dissolved in DMSO at a concentration of 50 μM or 200 μM, respectively, were prepared, and seeds of commercial Chinese cabbage cultivars 5923 and Hwimori were sterilized and then germinated on ½ MS solid medium to prepare 4-day seedlings showing consistent growth.
(§2) The leaves of the cultivars 5923 and Whimori prepared in Example 1-1 were collected and crushed, and then extracted with 50% methanol containing 2N HCl at 95° C. for 2 hours, and flavonoid substances present in the form of glycosides in the plants were aglyconized and analyzed by HPLC. After the substances were separated through HPLC using a C18 column, peaks were detected at 350 nm and 520 nm, and flavonoids and anthocyanin non-glycosides in the extract were identified by comparing the retention time and UV spectrum of flavonol non-glycoside standards such as kaempferol, quercetin, myricetin and isorhamnetin, and anthocyanin non-glycoside standards such as pelargonidin, cyanidin and delphinidin, respectively, and the content of the identified flavonoid and anthocyanin substances was estimated based on the concentration of the standards and the area of the peak. As a control group, the cultivar 5923 or Whimori that was not treated with sulfur compounds was used.

[2] = tested on: rice cultivar purple rice; test: Anthocyanin coloration of rice cultivar purple rice; conditions: for anthocyanin coloration in the hypocotyls: cultured 7 days
Method: To confirm whether anthocyanin coloring effects occur when not only dicotyledonous plants but also gramineous plants, which are monocotyledonous plants, are treated with S17 or 3-(2-S), seeds of the rice cultivar purple rice were sown on ½ MS medium containing each of S17 (40 μM) or 3-(2-S) (80 μM) and cultured for 7 days to observe anthocyanin coloration.

Arabidopsis thaliana = test: Anthocyanin coloration of Arabidopsis thaliana seedlings; conditions: cultured 5 days; for anthocyanin coloration: 50 μM or 200 μM + 4% sucrose
Method: To confirm whether anthocyanin coloring effect occurs when Arabidopsis thaliana, which is a cruciferous plant such as Chinese cabbage, is treated with S17 or 3-(2-S), Arabidopsis thaliana was treated with S17 or 3-(2-S) alone, and each was treated with 4% sucrose. Specifically, Arabidopsis thaliana seeds were germinated on ½ MS solid medium supplemented with 1% sucrose, and then day 6 seedlings were placed on ½ MS medium supplemented with each of S17 (50 μM or 200 μM)+4% sucrose, or 3-(2-S) (50 μM or 200 μM)+4% sucrose and cultured for 5 days to observe anthocyanin coloration.

[3] = tested on: Chinese cabbage cultivar Whimori; test: Flavonoid content of leaves by HPLC after aglyconization, cultivar Whimori
Method: as §1, §2

[4] = tested on: Chinese cabbage cultivar 5923; test: Anthocyanin coloration observed with the naked eye, Chinese cabbage cultivar 5923 seedlings; conditions: cultured 10 days
Method: as §1

[5] = tested on: Chinese cabbage cultivar Whimori; test: Anthocyanin coloration observed with the naked eye, Chinese cabbage cultivar Whimori seedlings; conditions: 50 μM or 200 μM, cultured 10 days
Method: as §1

O=C(O)/C=C/c1ccsc1 [S17, 3-(3-Thienyl) acrylic acid]
kaempferol content increase compared to the control group ([1]; 50 μM + 4% sucrose): up to 6.3 times
production of isorhamnetin ([1]; 50 μM + 4% sucrose): confirmed
production of quercetin ([1]; 50 μM + 4% sucrose): confirmed
cyanidin content compared to the control group ([1]; 200 μM + 4% sucrose): remarkably increased
cyanidin accumulation [1]: cyanidin was accumulated
anthocyanin production ability ([1]; 200 μM vs 50 μM treated group, + 4% sucrose): remarkably enhanced
kaempferol content [1]: increased in a concentration-dependent manner
anthocyanin coloration in the hypocotyls ([2]; 40 μM): anthocyanin coloration was strong
coloration-inducing effect (anthocyanin production effect) relative to 3-(2-S) ([2]; S17 40 μM vs 3-(2-S) 80 μM): comparatively superior
anthocyanin coloration (Arabidopsis thaliana): anthocyanin coloration occurred
anthocyanin coloring compared to the 3-(2-S) treated group (Arabidopsis thaliana; + 4% sucrose): stronger coloring
kaempferol content compared to the control group ([3]; 50 μM and 200 μM + 4% sucrose): remarkably increased
production of cyanidin ([3]; 50 μM and 200 μM + 4% sucrose): produced
production of isorhamnetin ([3]; 50 μM and 200 μM + 4% sucrose): produced
production of quercetin ([3]; 50 μM and 200 μM + 4% sucrose): produced
kaempferol content compared to the control group ([3]; treated alone (no sucrose)): remarkably increased
anthocyanin coloration (naked eye) ([4]; 50 μM + 4% sucrose): coloration appeared on the back of the cotyledons and true leaves
anthocyanin coloration (naked eye) ([4]; 200 μM + 4% sucrose): slightly increased coloration appeared
anthocyanin coloration (naked eye) ([4]; 200 μM alone, no sucrose): coloration appeared on the back of the leaves
anthocyanin coloration (naked eye) [5]: red coloration in Chinese cabbage in a concentration-dependent manner

O=C(O)/C=C/c1cccs1 [3-(2-S), 3-(2-Thienyl) acrylic acid]
cyanidin accumulation [1]: cyanidin was accumulated
kaempferol content [1]: increased in a concentration-dependent manner
anthocyanin coloration in the hypocotyls ([2]; 80 μM): anthocyanin coloration was strong
anthocyanin coloration (Arabidopsis thaliana): anthocyanin coloration occurred
production of cyanidin ([3]; 200 μM + 4% sucrose): produced
production of isorhamnetin ([3]; 200 μM + 4% sucrose): produced
production of quercetin ([3]; 200 μM + 4% sucrose): produced
kaempferol content ([3]; + 4% sucrose, concentration dependence): increased in a concentration-dependent manner
kaempferol content compared to the control group ([3]; treated alone (no sucrose)): remarkably increased
anthocyanin coloration (naked eye) ([4]; 200 μM + 4% sucrose): Coloration was confirmed
anthocyanin coloration (naked eye) [5]: red coloration in Chinese cabbage in a concentration-dependent manner
